Laboratory results: patent US20260014133A1, “SUBSTITUTED 3-(l-OXOISOINDOLIN-2-YL)PIPERIDINE-2,6-DIONE/2-(2,6-DIOXOPIPERIDIN-3-YL)ISOINDOLINE-l,3-DIONE ANALOGS AS MODULATORS OF CEREBLON PROTEIN” (St. Jude's Chidren's Research Hospital, Inc., priority 2022, published 2026)

Biological target: 6×His-CRBN-DDB1 protein (Homo sapiens (Human), UniProt Q96SW2)
Assay: CRBN Fluorescence Polarization Assay
Type: binding
Conditions: competitive fluorescence polarization; Cy5-O-Len probe 30 nM, 6×His-CRBN-DDB1 200 nM; 1 hour at room temperature; mean of three independent determinations; read-out: CRBN FP (IC50)
Protocol: In this competitive fluorescent polarization assay Cy5 conjugated lenalidomide analog (Cy5-O-Len)^13 was used as a fluorescent probe. 6×His-CRBN-DDB1 protein (200 nM) and Cy5-O-Len probe (30 nM) were combined in 20 mM HEPES pH 7, 150 mM NaCl, 0.005% Tween-20 assay buffer. 20 μL of this assay cocktail was dispensed into wells of Corning 3821 black 384-well plates. Compounds were transferred to the assay plate from a dose-response plate using a Pintool on a Biomek FXP Laboratory Automation Workstation (Beckman Coulter). The plates were incubated in the dark for 1 hour at room temperature and then read on an Envision plate reader (PerkinElmer, Massachusetts, USA). IC50 values were determined using a proprietary software RISE (Robust Investigation of Screening Experiments), developed in house on the Pipeline Pilot platform (Biovia, v. 17.2.0). Data represent the mean of three independent determinations.
Cereblon binding activity was determined as described herein above, and the results are provided below in Table 2 for representative disclosed compounds. Compound number (“Cmpd No.”) refers to the compound number (and associated compound information such as structure, name, etc.) as provided in Table 1. In Table 2 below: cereblon binding IC50 values are categorized as follows: “A” represents IC50 value<1 μM, “B” represents IC50 value between 1 and 10 μM, and “C” represents IC50 value>10 μM.

Sequence of 6×His-CRBN-DDB1 protein (Q96SW2 whole entry): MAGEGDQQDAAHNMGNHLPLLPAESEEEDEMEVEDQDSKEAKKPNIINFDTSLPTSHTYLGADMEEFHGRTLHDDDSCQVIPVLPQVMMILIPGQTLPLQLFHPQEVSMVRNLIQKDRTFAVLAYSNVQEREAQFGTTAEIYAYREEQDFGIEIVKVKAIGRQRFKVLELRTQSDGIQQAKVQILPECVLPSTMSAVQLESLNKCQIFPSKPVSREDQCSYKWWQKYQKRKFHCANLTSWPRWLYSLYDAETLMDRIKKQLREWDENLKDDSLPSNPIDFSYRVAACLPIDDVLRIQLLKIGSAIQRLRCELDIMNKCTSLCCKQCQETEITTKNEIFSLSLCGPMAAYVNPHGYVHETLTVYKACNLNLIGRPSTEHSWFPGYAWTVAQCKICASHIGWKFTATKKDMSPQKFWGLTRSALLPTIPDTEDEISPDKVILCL
Sequence of 6×His-CRBN-DDB1 protein (Q16531 whole entry partner): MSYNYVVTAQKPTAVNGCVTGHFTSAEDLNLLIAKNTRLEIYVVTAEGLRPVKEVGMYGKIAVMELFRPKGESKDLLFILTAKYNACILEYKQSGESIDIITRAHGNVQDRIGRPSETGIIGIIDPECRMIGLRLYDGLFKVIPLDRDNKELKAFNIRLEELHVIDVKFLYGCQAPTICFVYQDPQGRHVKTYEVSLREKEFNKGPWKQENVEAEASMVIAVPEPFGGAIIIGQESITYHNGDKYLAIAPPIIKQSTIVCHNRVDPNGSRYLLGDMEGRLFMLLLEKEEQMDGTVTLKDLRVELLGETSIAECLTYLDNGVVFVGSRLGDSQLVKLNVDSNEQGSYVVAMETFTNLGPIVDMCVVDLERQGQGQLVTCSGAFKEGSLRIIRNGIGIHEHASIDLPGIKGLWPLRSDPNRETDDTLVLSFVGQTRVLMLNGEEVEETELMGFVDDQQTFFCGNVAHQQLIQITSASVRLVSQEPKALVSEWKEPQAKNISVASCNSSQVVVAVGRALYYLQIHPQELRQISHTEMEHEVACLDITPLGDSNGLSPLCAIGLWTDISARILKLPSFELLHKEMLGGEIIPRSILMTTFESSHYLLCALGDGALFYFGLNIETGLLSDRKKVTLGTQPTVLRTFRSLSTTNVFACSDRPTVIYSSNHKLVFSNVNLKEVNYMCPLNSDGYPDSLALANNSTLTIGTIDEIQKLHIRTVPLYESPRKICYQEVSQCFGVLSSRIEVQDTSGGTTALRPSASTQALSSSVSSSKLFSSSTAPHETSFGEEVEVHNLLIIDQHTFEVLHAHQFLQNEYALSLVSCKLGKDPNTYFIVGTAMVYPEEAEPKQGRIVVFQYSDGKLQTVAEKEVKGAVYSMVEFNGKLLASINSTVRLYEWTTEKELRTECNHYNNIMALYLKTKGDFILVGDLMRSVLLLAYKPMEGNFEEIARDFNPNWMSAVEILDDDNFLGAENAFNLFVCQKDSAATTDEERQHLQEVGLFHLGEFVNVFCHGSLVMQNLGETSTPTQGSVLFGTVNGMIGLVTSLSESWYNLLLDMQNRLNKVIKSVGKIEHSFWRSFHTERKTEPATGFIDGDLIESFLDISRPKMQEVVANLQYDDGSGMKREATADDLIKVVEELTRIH

SMILES	IC50
Cc1ccc(C(=O)Nc2ccc3c(c2)C(=O)N(C2CCC(=O)NC2=O)C3=O)cc1 (stereo not drawn) [Compound 1, N-(2-(2,6-dioxopiperidin-3-yl)-1,3-dioxolsoindolin-5-yl)-4-methylbenzamide]	1 to 10 µM
Cc1cccc(C(=O)Nc2ccc3c(c2)CN(C2CCC(=O)NC2=O)C3=O)c1 (stereo not drawn) [Compound 3, N-(2-(2,6-dioxopiperidin-3-yl)-1-oxoisoindolin-5-yl)-3-methylbenzamide]	1 to 10 µM
O=C1CCC(N2Cc3cc(NC(=O)c4ccc(F)cc4)ccc3C2=O)C(=O)N1 (stereo not drawn) [Compound 5, N-(2-(2,6-dioxopiperidin-3-yl)-1-oxoisoindolin-5-yl)-4-fluorobenzamide]	1 to 10 µM
O=C1CCC(N2Cc3cc(NC(=O)c4cccnc4)ccc3C2=O)C(=O)N1 (stereo not drawn) [Compound 6, N-(2-(2,6-dioxopiperidin-3-yl)-1-oxoisoindolin-5-yl)nicotinamide]	1 to 10 µM
O=C1CCC(N2Cc3cc(NC(=O)c4ccncc4)ccc3C2=O)C(=O)N1 (stereo not drawn) [Compound 7, N-(2-(2,6-dioxopiperidin-3-yl)-1-oxoisoindolin-5-yl)isonicotinamide]	1 to 10 µM
O=C1CCC(N2Cc3cc(NC(=O)c4cccc(F)c4)ccc3C2=O)C(=O)N1 (stereo not drawn) [Compound 8, N-(2-(2,6-dioxopiperidin-3-yl)-1-oxoisoindolin-5-yl)-3-fluorobenzamide]	1 to 10 µM
COc1cccc(C(=O)Nc2ccc3c(c2)CN(C2CCC(=O)NC2=O)C3=O)c1 (stereo not drawn) [Compound 11, N-(2-(2,6-dioxopiperidin-3-yl)-1-oxoisoindolin-5-yl)-3-methoxybenzamide]	< 1 µM
O=C1CCC(N2Cc3cc(NC(=O)c4ccc(Cl)cc4)ccc3C2=O)C(=O)N1 (stereo not drawn) [Compound 14, 4-chloro-N-(2-(2,6-dioxopiperidin-3-yl)-1-oxoisoindolin-5-yl)benzamide]	1 to 10 µM
O=C1CCC(N2Cc3cc(C(=O)Nc4ccc(F)cc4)ccc3C2=O)C(=O)N1 (stereo not drawn) [Compound 16, 2-(2,6-dioxopiperidin-3-yl)-N-(4-fluorophenyl)-1-oxoisoindoline-5-carboxamide]	1 to 10 µM
Cc1ccc(NC(=O)Nc2ccc3c(c2)CN(C2CCC(=O)NC2=O)C3=O)cc1 (stereo not drawn) [Compound 17, 1-(2-(2,6-dioxopiperidin-3-yl)-1-oxoisoindolin-5-yl)-3-(p-tolyl)urea]	1 to 10 µM
CN(C(=O)c1ccccc1)c1ccc2c(c1)CN(C1CCC(=O)NC1=O)C2=O (stereo not drawn) [Compound 18, N-(2-(2,6-dioxopiperidin-3-yl)-1-oxoisoindolin-5-yl)-N-methylbenzamide]	1 to 10 µM
Cc1ccc(C(=O)Nc2ccc3c(c2)CN(C2CCC(=O)NC2=O)C3=O)cn1 (stereo not drawn) [Compound 20, N-(2-(2,6-dioxopiperidin-3-yl)-1-oxoisoindolin-5-yl)-6-methylnicotinamide]	1 to 10 µM
O=C1CCC(N2Cc3cc(NC(=O)c4ccc(-c5ccn[nH]5)cc4)ccc3C2=O)C(=O)N1 (stereo not drawn) [Compound 21, N-(2-(2,6-dioxopiperidin-3-yl)-1-oxoisoindolin-5-yl)-4-(1H-pyrazol-5-yl)benzamide]	1 to 10 µM
CC(C)(O)c1ccc(C(=O)Nc2ccc3c(c2)CN(C2CCC(=O)NC2=O)C3=O)cc1 (stereo not drawn) [Compound 22, N-(2-(2,6-dioxopiperidin-3-yl)-1-oxoisoindolin-5-yl)-4-(2-hydroxypropan-2-yl)benzamide]	1 to 10 µM
O=C1CCC(N2Cc3cc(NC(=O)c4[nH]c5ccccc5c4Cl)ccc3C2=O)C(=O)N1 (stereo not drawn) [Compound 26, 3-chloro-N-(2-(2,6-dioxopiperidin-3-yl)-1-oxoisoindolin-5-yl)-1H-indole-2-carboxamide]	> 10 µM
CC(N)c1ccc(C(=O)Nc2ccc3c(c2)CN(C2CCC(=O)NC2=O)C3=O)cc1 (stereo not drawn) [Compound 29, 4-(1-aminoethyl)-N-(2-(2,6-dioxopiperidin-3-yl)-1-oxoisoindolin-5-yl)benzamide]	1 to 10 µM
NC1(c2ccc(C(=O)Nc3ccc4c(c3)CN(C3CCC(=O)NC3=O)C4=O)cc2)CCC1 (stereo not drawn) [Compound 30, 4-(1-aminocyclobutyl)-N-(2-(2,6-dioxopiperidin-3-yl)-1-oxoisoindolin-5-yl)benzamide]	1 to 10 µM
CN1CCN(Cc2ccc(C(=O)Nc3ccc4c(c3)CN(C3CCC(=O)NC3=O)C4=O)cc2)CC1 (stereo not drawn) [Compound 31]	1 to 10 µM
O=C1CCC(N2Cc3cc(NC(=O)c4ccc(CN5CCOCC5)cc4)ccc3C2=O)C(=O)N1 (stereo not drawn) [Compound 32, N-(2-(2,6-dioxopiperidin-3-yl)-1-oxoisoindolin-5-yl)-4-(morpholinomethyl)benzamide]	1 to 10 µM
Cc1ccccc1C(=O)Nc1ccc2c(c1)CN(C1CCC(=O)NC1=O)C2=O (stereo not drawn) [Compound 33, N-(2-(2,6-dioxopiperidin-3-yl)-1-oxoisoindolin-5-yl)-2-methylbenzamide]	1 to 10 µM
COc1ccccc1C(=O)Nc1ccc2c(c1)CN(C1CCC(=O)NC1=O)C2=O (stereo not drawn) [Compound 34, N-(2-(2,6-dioxopiperidin-3-yl)-1-oxoisoindolin-5-yl)-2-methoxybenzamide]	1 to 10 µM
Cc1cccc(C(=O)Nc2ccc3c(c2)CN(C2CCC(=O)NC2=O)C3=O)n1 (stereo not drawn) [Compound 35, N-(2-(2,6-dioxopiperidin-3-yl)-1-oxoisoindolin-5-yl)-6-methylpicolinamide]	1 to 10 µM
Cc1ccc(C(=O)Nc2ccc3c(c2)CN(C2CCC(=O)NC2=O)C3=O)nc1 (stereo not drawn) [Compound 36, N-(2-(2,6-dioxopiperidin-3-yl)-1-oxoisoindolin-5-yl)-5-methylpicolinamide]	< 1 µM
O=C1CCC(N2Cc3cc(NC(=O)c4ccccc4F)ccc3C2=O)C(=O)N1 (stereo not drawn) [Compound 37, N-(2-(2,6-dioxopiperidin-3-yl)-1-oxoisoindolin-5-yl)-2-fluorobenzamide]	1 to 10 µM
O=C1CCC(N2Cc3cc(Nc4noc5ccccc45)ccc3C2=O)C(=O)N1 (stereo not drawn) [Compound 38, 3-(5-(benzo[d]isoxazol-3-ylamino)-1-oxoisoindolin-2-yl)piperidine-2,6-dione]	< 1 µM
COc1ccc(C(=O)Nc2ccc3c(c2)CN(C2CCC(=O)NC2=O)C3=O)cc1 (stereo not drawn) [Compound 40, N-(2-(2,6-dioxopiperidin-3-yl)-1-oxoisoindolin-5-yl)-4-methoxybenzamide]	< 1 µM
CC(C)c1cccc(C(=O)Nc2ccc3c(c2)CN(C2CCC(=O)NC2=O)C3=O)c1 (stereo not drawn) [Compound 41, N-(2-(2,6-dioxopiperidin-3-yl)-1-oxoisoindolin-5-yl)-3-isopropylbenzamide]	1 to 10 µM

Now from value to compound:

IC50	SMILES
< 1 µM	Cc1ccc(C(=O)Nc2ccc3c(c2)CN(C2CCC(=O)NC2=O)C3=O)cc1 (stereo not drawn) [Compound 2, N-(2-(2,6-dioxopiperidin-3-yl)-1-oxoisoindolin-5-yl)-4-methylbenzamide]
< 1 µM	O=C1CCC(N2Cc3cc(NC(=O)c4ccccc4)ccc3C2=O)C(=O)N1 (stereo not drawn) [Compound 4, N-(2-(2,6-dioxopiperidin-3-yl)-1-oxoisoindolin-5-yl)benzamide]
< 1 µM	N#Cc1cccc(C(=O)Nc2ccc3c(c2)CN(C2CCC(=O)NC2=O)C3=O)c1 (stereo not drawn) [Compound 9, 3-cyano-N-(2-(2,6-dioxopiperidin-3-yl)-1-oxoisoindolin-5-yl)benzamide]
< 1 µM	O=C1CCC(N2Cc3cc(NC(=O)c4ccccc4C(F)(F)F)ccc3C2=O)C(=O)N1 (stereo not drawn) [Compound 10, N-(2-(2,6-dioxopiperidin-3-yl)-1-oxoisoindolin-5-yl)-2-(trifluoromethyl)benzamide]
< 1 µM	O=C1CCC(N2Cc3cc(NC(=O)c4cccc(C(F)(F)F)c4)ccc3C2=O)C(=O)N1 (stereo not drawn) [Compound 12, N-(2-(2,6-dioxopiperidin-3-yl)-1-oxoisoindolin-5-yl)-3-(trifluoromethyl)benzamide]
< 1 µM	O=C1CCC(N2Cc3cc(NC(=O)c4ccc(Cl)cc4)ccc3C2=O)C(=O)N1 (stereo not drawn) [Compound 13, 4-chloro-N-(2-(2,6-dioxopiperidin-3-yl)-1-oxoisoindolin-5-yl)benzamide]
< 1 µM	O=C1CCC(N2Cc3cc(NC(=O)c4ccc(C(F)(F)F)cc4)ccc3C2=O)C(=O)N1 (stereo not drawn) [Compound 15, N-(2-(2,6-dioxopiperidin-3-yl)-1-oxoisoindolin-5-yl)-4-(trifluoromethyl)benzamide]
< 1 µM	Cc1ccc2c(Nc3ccc4c(c3)CN(C3CCC(=O)NC3=O)C4=O)noc2c1 (stereo not drawn) [Compound 19, 3-(5-((6-methylbenzo[d]isoxazol-3-yl)amino)-1-oxoisoindolin-2-yl)piperidine-2,6-dione]
< 1 µM	O=C1CCC(N2Cc3cc(NC(=O)c4ccccc4Oc4ccccc4)ccc3C2=O)C(=O)N1 (stereo not drawn) [Compound 23, N-(2-(2,6-dioxopiperidin-3-yl)-1-oxoisoindolin-5-yl)-2-phenoxybenzamide]
< 1 µM	O=C1CCC(N2Cc3cc(NC(=O)Cc4ccc(O)cc4)ccc3C2=O)C(=O)N1 (stereo not drawn) [Compound 24, N-(2-(2,6-dioxopiperidin-3-yl)-1-oxoisoindolin-5-yl)-2-(4-hydroxyphenyl)acetamide]
< 1 µM	O=C1CCC(N2Cc3cc(NC(=O)Cc4ccccc4Br)ccc3C2=O)C(=O)N1 (stereo not drawn) [Compound 25, 2-(2-bromophenyl)-N-(2-(2,6-dioxopiperidin-3-yl)-1-oxoisoindolin-5-yl)acetamide]
< 1 µM	O=C1CCC(N2Cc3cc(NC(=O)c4ccc5nc[nH]c5c4)ccc3C2=O)C(=O)N1 (stereo not drawn) [Compound 27, N-(2-(2,6-dioxopiperidin-3-yl)-1-oxoisoindolin-5-yl)-1H-benzo[d]imidazole-6-carboxamide]
